# Measurements: US20140314788A1, “MODULATION OF HISTONE DEACETYLASES FOR THE TREATMENT OF METABOLIC DISEASE, METHODS AND COMPOSITIONS RELATED THERETO” (Salk Institute for Biological Studies, priority 2010, published 2014)
# “Also recorded” adds a separate entry of the source.
# Columns and labels:
# [1] = system: db/db mice; assay: Blood glucose in db/db mice treated with MC1568; format: in vivo, mouse; settings: 50 mg/kg intraperitoneally once a day for 4 days, fasted for 22 hours (4 hrs after final treatment)
# Procedure: (§1) Blood glucose was measured on mice fasted for 22 hours (4 hrs following the final treatment).
# [2] = system: G6PAse and PEPCK mRNA; assay: qPCR of G6PAse and PEPCK mRNA in primary hepatocytes pre-treated with MC1568; format: cell-based, mouse; settings: 5 uM MC1568 for 14 hours, then 10 uM Forskolin or 100 nM Glucagon for 4 hrs; normalized to cyclophilin
# Procedure: as §1
# (§2) Primary hepatocytes were derived from C57BL/6J mice and maintained in serum free Media 199. Cells were transduced 24 hrs after harvesting. Knock-down and over-expression studies in hepatocytes were done by infecting cells at 5 PFUs/cell. All adenoviral shRNA knockdowns were carried out for 72 hrs. For subcellular fractionation, cells were treated as indicated, washed 3 times with PBS and lysed utilizing NE-PER Cell Fractionation Kit (Pierce). Primary hepatocytes were treated with 10 uM Forksolin (Sigma) and 100 nM Glucagon (Novo Nordisk), 100 nM insulin (Lilly) at indicated times.
# mRNA from primary hepatocytes was isolated using RNAeasy (Qiagen) kit and reverse transcribed using SuperScript II Reverse Transcriptase. Three samples/mice were used per condition and qPCR was done in technical triplicate for each sample. qPCR reaction was carried out using Syber GreenER (Invitrogen). All qPCR results are representative of 3 separate experiments.
# [3] = system: HDAC4/5/7; assay: Immunoblot of HDAC phosphorylation in livers of metformin-treated mice; format: in vivo; settings: mouse liver, 250 mg/kg metformin intraperitoneally for 1 h
# Procedure: (D) Immunoblot of lysates from murine livers from LKB1+/+ or LKB1lox/lox mice deleted for hepatic LKB1 and treated with either 250 mg/kg metformin, or saline alone for 1 h.
# To induce Cre-mediated deletion in Albumin-creERT2 mice, mice were intraperitoneally injected with 1 mg/mouse of Tamoxifen (SIGMA) for 5 consecutive days. Ad-Cre mediated deletion in LBK1lox/lox mice was done by tail vein injection of 1×10^9 PFUs/mouse in 8 week old males (FIG. 1D). […] For metformin experiments, mice injected intraperitoneally with 250 mg/kg Metformin in 0.9% saline for 1 h.
# [4] = system: HDAC4/5/7; assay: Immunoblot of HDAC phosphorylation in primary hepatocytes treated with A769662; format: cell-based, mouse; settings: 1 hr, particularly on the Ser498 sites
# Procedure: (F) Lysates from primary hepatocytes treated with either AMPK agonist A769662 or Vehicle (DMSO) for 1 hr and immunoblotted with indicated antibodies.
# as §2
# [5] = system: FOXO1; assay: FOXO1 acetylation immunoblot in HEK293T cells treated with TSA; format: cell-based; settings: HEK293T cells with Myc-Foxo1 WT, 1 uM TSA for 2 h
# Procedure: (C) HEK293T cells were transfected with Myc-Foxo1 WT construct and cells were treated with 1 uM TSA and/or 10 mM NAM for 2 h. Cell lysates were immunoblotted with indicated antibodies.
# (§3) HEK293T, Huh7, HepG2, C2C12, and U2OS cells were obtained from ATCC. RNAi SMARTpool human LKB1 (Dharmacon) or RNAi negative control (Invitrogen) used at 20 nM final concentration and transfected using RNAiMAX transfection reagent (Invitrogen). Knockdowns were carried out for 72 hrs. Cells were treated with 1 uM TSA or 10 mM NAM (Sigma), Cells were treated with 2 mM AICAR (Toronto Research Chemicals) or 2 mM Phenformin (Sigma).
# [6] = system: GFP-HDAC5; assay: GFP-HDAC5 nuclear translocation in primary mouse hepatocytes (confocal microscopy); format: cell-based; settings: 100 nM glucagon
# [7] = system: HDAC4/5/7; assay: Immunoblot of HDAC phosphorylation in primary mouse hepatocytes treated with glucagon or forskolin; format: cell-based; settings: 100 nM glucagon or 10 uM forskolin
# [8] = system: endogenous Class IIa HDACs; assay: Subcellular fractionation of primary hepatocytes; format: cell-based, mouse; settings: 100 nM Glucagon or 10 uM Forskolin for 1 h
# [9] = system: HDAC4/5/7; assay: Immunoblot of HDAC phosphorylation in liver lysates of glucagon-injected mice; format: in vivo, mouse; settings: mice starved 6 h, glucagon for 45 minutes
# Procedure: (A) Mice were starved for 6 h and then treated with saline, glucagon (Gluca) for 45 minutes, or refed for 3 h. Liver lysates were immunoblotted with indicated antibodies.
# [10] = system: HDACs4/5; assay: Immunoblot of HDAC phosphorylation in HepG2 or Huh7 cells treated with phenformin; format: cell-based, human; settings: 2 mM Phenformin for 1 hr
# Procedure: (C) Lysates of HepG2 or Huh7 cells transfected with indicated siRNA pools and treated with either 2 mM Phenformin or vehicle for 1 hr and subjected to immunoblotting.
# as §3
compound,measurement,setting,value
Cn1c(/C=C/C(=O)NO)ccc1/C=C/C(=O)c1cccc(F)c1 [MC1568],blood glucose,[1],lowers blood glucose; also recorded: suppression
same,"expression of G6PAse (mRNA, qPCR)",[2],suppresses the expression; also recorded: suppression
same,"expression of PEPCK (mRNA, qPCR)",[2],suppresses the expression; also recorded: suppression
CN(C)C(=N)N=C(N)N [metformin],Phospho-Ser498 in HDAC4/5/7,[3],increase in Phospho-Ser498
N#Cc1c(O)c2c(-c3ccc(-c4ccccc4O)cc3)csc2[nH]c1=O [A769662],HDAC4/5/7 phosphorylation,[4],increased HDAC4/5/7 phosphorylation
CC(/C=C/C(=O)NO)=C\[C@@H](C)C(=O)c1ccc(N(C)C)cc1 [trichostatin A],FOXO1 acetylation,[5],increased FOXO1 acetylation
glucagon,time to full nuclear translocation of GFP-tagged HDAC5,[6],≤ 30 min
same,endogenous HDAC4/5/7 phosphorylation,[7],rapid loss of endogenous HDAC4/5/7 phosphorylation
same,localization of endogenous Class IIa HDACs,[8],translocate fully into the nucleus
same,HDAC4/5/7 phosphorylation in liver,[9],reduced HDAC4/5/7 phosphorylation
[H]/N=C(/N)N/C(=N/[H])NCCc1ccccc1 [phenformin],phosphorylation on Ser498 of HDACs4/5,[10],LKB1-dependent increase in phosphorylation
